Test results from PubChem BioAssay (NCI).
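At the GI50, growth is halved. TGI denotes the concentration required for complete inhibition of growth.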

Experiments:
Assay in all cases: inhibition of tumour cell growth, NCI panel, 384-well format
CCRF-CEM leukemia = system: CCRF-CEM leukemia
HCC-2998 colon = system: HCC-2998 colon
ACHN renal = system: ACHN renal
SF-295 CNS = system: SF-295 CNS
KM12 colon = system: KM12 colon
LOX IMVI melanoma = system: LOX IMVI melanoma
SNB-75 CNS = system: SNB-75 CNS
TK-10 renal = system: TK-10 renal
SK-MEL-5 melanoma = system: SK-MEL-5 melanoma
HOP-92 NSCLC = system: HOP-92 NSCLC
HS 578T breast = system: HS 578T breast
NCI-H226 lung = system: NCI-H226 lung
HCT-116 colon = system: HCT-116 colon

With `COc1cc2nc(C)nc(N[C@H](C)c3cc(N)cc(C(F)(F)F)c3)c2cc1O[C@H]1CCOC1` the GI50 (CCRF-CEM leukemia) was 9.35 µM, the TGI (CCRF-CEM leukemia) was 21.3 µM and the GI50 (HCC-2998 colon) was 3.6 µM. The TGI (HCC-2998 colon) was 15.9 µM, the GI50 (ACHN renal) was 13.8 µM and the TGI (ACHN renal) was 26.7 µM. The GI50 (SF-295 CNS) was 12.8 µM, the TGI (SF-295 CNS) was 25.4 µM and the GI50 (KM12 colon) was 0.98 µM. It also gave a TGI (KM12 colon) of 17.1 µM, a GI50 (LOX IMVI melanoma) of 13.4 µM and a TGI (LOX IMVI melanoma) of 26.3 µM. It also gave a GI50 (SNB-75 CNS) of 6.26 µM, a TGI (SNB-75 CNS) of 20 µM and a GI50 (TK-10 renal) of 10.9 µM. For the same compound, the TGI (TK-10 renal) was 22.9 µM, the GI50 (SK-MEL-5 melanoma) was 3.15 µM and the TGI (SK-MEL-5 melanoma) was 17.1 µM. The GI50 (HOP-92 NSCLC) was 0.0895 µM, the TGI (HOP-92 NSCLC) was 5.19 µM and the GI50 (HS 578T breast) was 2.1 µM. For the same compound, the TGI (HS 578T breast) was 15.9 µM, the GI50 (NCI-H226 lung) was 3.24 µM and the TGI (NCI-H226 lung) was 19.1 µM. The GI50 (HCT-116 colon) was 10.5 µM and the TGI (HCT-116 colon) was 22.4 µM.
